Measurements as given in patent publication US20260337656A1, “METHODS OF SYNTHESIZING PEPTIDES WITH FREE N-TERMINAL CYSTEINE AND PRODUCTS THEREOF” (OHIO STATE INNOVATION FOUNDATION, priority 2022, published 2026).
No end group written: not given here.

Legend:
[1] = molecular target: T1, A. sobria ProAP (Aeromonas sobria, UniProt P46547); test: ProAP activity assay (kinetic constants of A. sobria ProAP against selected peptide substrates); format: biochemical; conditions: role: substrate; for kcat/KM: PBS pH 7.4, 2 mM DTT, 0-500 μM peptide, 0.5-25 nM ProAP, mean ± SD of three independent sets of experiments; for decrease in catalytic activity on substitution of Ala for Gly at P2′: peptide 6 compared with 9, peptide 10 compared with 8; for change in catalytic activity on replacement of His at P3′ with Gly or Ser: peptides 1 and 9 or peptides 3 and 6 compared
Procedure: A typical assay reaction (total volume of 100 μL) contained PBS (10 mM Na2HPO4, 1.8 mM KH2PO4, 137 mM NaCl, 2.7 mM KCl, 2 mM DTT pH 7.4) and 0-500 μM peptide substrate. The reaction was initiated by the addition of ProAP (final concentration of 0.5-25 nM) and quenched after 5-30 min by the addition of 100 μL of 10% TFA. The reaction mixture was centrifuged at 15,000 rpm in a microcentrifuge for 5 min, and the clear supernatant was analyzed on a Waters Acquity UPLC-MS equipped with a BEH C18 column (1.7 μm, 2.1 mm I.D., 100 mm length). The column was eluted with a linear gradient of acetonitrile (0-25% over 8 min) in water containing 0.05% TFA. The percentage of substrate-to-product conversion was determined by comparing the peak areas of the remaining substrate and the reaction product (monitored at 280 nm) and kept at ≤20%. The initial rates were calculated from the conversion percentages and plotted versus [S]. Data fitting against the Michaelis-Menten equation V=Vmax[S]/(KM+[S]) or the simplified equation V=kcat[E][S]/KM (when KM>>[S]) gave the kinetic constants kcat, KM, and/or kcat/KM.
To confirm the screening results, we individually synthesized a panel of peptides and determined their kinetic properties toward A. sobria ProAP (Table 1). Peptides 1-6 are representative (preferred) sequences selected from the library, while peptide 7 is the consensus sequence based on the screening results. Peptide 8 is a variant of peptide 7, containing a proline (instead of a lysine) at the P5′ position. We anticipated that a proline residue at this position would improve the proteolytic stability of the peptide. Peptide 9 is a variant of peptide 6 (substitution of Gly for Ala at the P2′ position) and was designed to test the importance of a Gly residue at the P2′ position. Peptide 10 is also a variant of peptide 6 but contains a Pro at position P5′ (in place of Lys) to impart proteolytic stability. Peptide 11 is derived from a colorless bead during library screening (Table C) and expected to be a poor substrate of ProAP (“negative” control). All peptides contained a Tyr at the P6′ position, to facilitate concentration measurement as well as monitoring the enzymatic reactions by UPLC (at 280 nm).

[2] = molecular target: T1, A. sobria ProAP; test: Proline removal from peptide 8 by ProAP before N-terminal labeling (UPLC-MS); format: biochemical
Procedure: Peptide (100 μM) was incubated with ProAP (4 μM) in 20 mM Tris, pH 8.5, 100 mM NaCl for 1 h at 37° C. One half of the reaction (40 μL) was set aside for later UPLC-MS analysis, while the other half was mixed with 40 μL of FAM-CO-SR (400 μM), sodium 2-mercaptoethanesulfonate (2 mM), and TCEP (2.5 mM) in PBS (H 7.5). The mixture was incubated at room temperature for 5 h and analyzed by UPLC-MS.
We first tested the feasibility of generating an N-terminal cysteine by ProAP and specific N-terminal conjugation with a peptide as substrate. […] The reaction mixture was next treated with an excess of fluorescein 2-mercaptoethanesulfonate thioester (FAM-CO-SR; 4 equivalents) in the presence of 2-mercaptoethanesulfonate (2-MES) and TCEP in a phosphate buffer (pH 7.5).

T1 sequence (P46547 whole entry, added parts left off): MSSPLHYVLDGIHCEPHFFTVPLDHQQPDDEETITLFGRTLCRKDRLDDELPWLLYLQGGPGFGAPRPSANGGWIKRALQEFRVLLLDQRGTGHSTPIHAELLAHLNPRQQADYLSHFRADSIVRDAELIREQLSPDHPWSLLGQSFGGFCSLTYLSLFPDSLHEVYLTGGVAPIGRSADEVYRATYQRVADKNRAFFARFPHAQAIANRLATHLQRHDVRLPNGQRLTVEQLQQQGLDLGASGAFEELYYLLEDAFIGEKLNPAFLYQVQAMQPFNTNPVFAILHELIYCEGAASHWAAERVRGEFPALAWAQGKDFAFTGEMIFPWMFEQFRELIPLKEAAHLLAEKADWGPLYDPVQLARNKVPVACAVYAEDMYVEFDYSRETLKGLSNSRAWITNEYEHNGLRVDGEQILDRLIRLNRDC

PCGSSKY-NH2 [Peptide 2, PCGSSKY]
kcat/KM [1]: 5.8 ± 1.0 ×10^5 M^−1 s^−1

O=C(O)CCP(CCC(=O)O)CCC(=O)O [TCEP, tris(carboxyethyl)phosphine, reference compound]
inhibition of A. sobria ProAP activity ([2]; role: inhibitor): strongly inhibits

PCGHKPY-NH2 [Peptide 8, PCGHKPY]
kcat/KM [1]: 8.3 ± 3.2 ×10^5 M^−1 s^−1
disappearance of peptide on treatment with ProAP ([2]; role: substrate, 100 μM peptide, 4 μM ProAP, 60 min): complete disappearance

PCAHKPY-NH2 [Peptide 10, PCAHKPY]
kcat/KM [1]: 2.8 ± 0.8 ×10^5 M^−1 s^−1
decrease in catalytic activity on substitution of Ala for Gly at P2′ [1]: 2- to 3 fold

PCHDETY-NH2 [Peptide 11, PCHDETY]
kcat/KM [1]: 0.038 ± 0.010 ×10^5 M^−1 s^−1
less active than peptides 1-10 ([1]; negative control compared with peptides 1-10): ~ 2 orders of magnitude

PCSHKGY-NH2 [Peptide 4, PCSHKGY]
kcat/KM [1]: 3.2 ± 0.1 ×10^5 M^−1 s^−1

PCASKAY-NH2 [Peptide 3, PCASKAY]
kcat/KM [1]: 3.8 ± 0.4 ×10^5 M^−1 s^−1
change in catalytic activity on replacement of His at P3′ with Gly or Ser [1]: ≤ 1.3 fold

PCGHKKY-NH2 [Peptide 7, PCGHKKY]
kcat/KM [1]: 8.2 ± 0.7 ×10^5 M^−1 s^−1

PCGHKAY-NH2 [Peptide 9, PCGHKAY]
kcat/KM [1]: 7.2 ± 2.6 ×10^5 M^−1 s^−1

PCGGKAY-NH2 [Peptide 1, PCGGKAY]
kcat/KM [1]: 7.0 ± 1.2 ×10^5 M^−1 s^−1
change in catalytic activity on replacement of His at P3′ with Gly or Ser [1]: ≤ 1.3 fold

PCEFTRY-NH2 [Peptide 5, PCEFTRY]
kcat/KM [1]: 3.2 ± 0.9 ×10^5 M^−1 s^−1

PCAHKAY-NH2 [Peptide 6, PCAHKAY]
decrease in catalytic activity on substitution of Ala for Gly at P2′ [1]: 2- to 3 fold
